Results from US11021493B2, “1,4-thiazine dioxide and 1,2,4-thiadiazine dioxide derivatives as beta-secretase inhibitors and methods of use” (AMGEN INC., priority 2016, dated 2021).

Key:
BACE1 [1] = biological target: T1, BACE1 (Homo sapiens (Human), UniProt P56817); assay: In vitro enzymatic BACE1 FRET assay; format: biochemical; settings: read-out: BACE1 Enzyme IC50
Target sequence in this assay (P56817 46-501): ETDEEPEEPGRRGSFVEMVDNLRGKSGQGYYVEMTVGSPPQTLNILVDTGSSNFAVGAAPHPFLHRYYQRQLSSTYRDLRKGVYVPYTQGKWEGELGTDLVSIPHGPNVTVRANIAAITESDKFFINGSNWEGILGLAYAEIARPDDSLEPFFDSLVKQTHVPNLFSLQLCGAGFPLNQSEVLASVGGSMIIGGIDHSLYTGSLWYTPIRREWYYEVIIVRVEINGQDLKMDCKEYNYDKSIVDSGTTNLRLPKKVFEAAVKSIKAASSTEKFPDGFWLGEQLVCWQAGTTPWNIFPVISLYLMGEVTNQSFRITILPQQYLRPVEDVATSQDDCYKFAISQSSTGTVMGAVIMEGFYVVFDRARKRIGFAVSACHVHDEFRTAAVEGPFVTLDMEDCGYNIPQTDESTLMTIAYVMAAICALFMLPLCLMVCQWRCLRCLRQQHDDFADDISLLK

BACE1 [2] = biological target: T1, BACE1; assay: In vitro BACE1 cell-based assay (Aβ40 in conditioned medium of cells stably expressing APP, HTRF); settings: Aβ40 in conditioned media after 24 h incubation
Target sequence in this assay (P56817 46-501, species assumed): as the sequence (P56817 46-501) above

human recombinant BACE2 = human recombinant BACE2 (Homo sapiens (Human), UniProt Q9Y5Z0); assay: In vitro enzymatic BACE2 FRET assay; format: biochemical; settings: read-out: BACE2 Enzyme IC50
Sequence of human recombinant BACE2 (Q9Y5Z0 63-518): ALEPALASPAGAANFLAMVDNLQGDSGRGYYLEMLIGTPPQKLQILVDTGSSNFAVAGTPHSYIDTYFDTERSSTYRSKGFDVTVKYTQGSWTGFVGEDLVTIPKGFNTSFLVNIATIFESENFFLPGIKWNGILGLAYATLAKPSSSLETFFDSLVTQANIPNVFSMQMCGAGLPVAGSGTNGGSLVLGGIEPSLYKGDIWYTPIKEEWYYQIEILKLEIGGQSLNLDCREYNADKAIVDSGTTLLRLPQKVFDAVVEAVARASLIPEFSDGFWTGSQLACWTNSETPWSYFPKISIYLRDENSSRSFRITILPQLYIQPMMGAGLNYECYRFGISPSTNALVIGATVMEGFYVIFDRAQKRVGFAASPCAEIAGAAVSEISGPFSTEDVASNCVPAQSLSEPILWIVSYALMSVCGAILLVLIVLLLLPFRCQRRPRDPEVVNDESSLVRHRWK

Cathepsin D (CatD) = Cathepsin D (CatD) (Homo sapiens (Human), UniProt P07339); assay: In vitro enzymatic Cathepsin D (CatD) FRET assay; format: biochemical; settings: read-out: Cat D Enzyme IC50
Sequence of Cathepsin D (CatD) (P07339 65-412, species assumed): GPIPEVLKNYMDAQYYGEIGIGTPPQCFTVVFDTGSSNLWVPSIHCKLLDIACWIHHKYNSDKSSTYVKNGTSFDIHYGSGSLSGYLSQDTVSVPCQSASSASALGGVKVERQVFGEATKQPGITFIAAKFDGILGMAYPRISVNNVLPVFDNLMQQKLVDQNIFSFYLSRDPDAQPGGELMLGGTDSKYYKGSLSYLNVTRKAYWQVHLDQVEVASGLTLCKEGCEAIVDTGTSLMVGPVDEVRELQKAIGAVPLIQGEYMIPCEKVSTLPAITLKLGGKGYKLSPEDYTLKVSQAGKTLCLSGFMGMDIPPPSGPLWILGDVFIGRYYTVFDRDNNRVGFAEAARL

Row | SMILES | IC50 (BACE1 [1]) | IC50 (BACE1 [2]) | IC50 (human recombinant BACE2) | IC50 (Cathepsin D (CatD))
1 | CC1(C)C(N)=N[C@](C)(c2cc(/C=C(\F)c3cnc(OCc4ncco4)cn3)ccc2F)CS1(=O)=O [Example 129, (R,Z)-5-amino-3-(2-fluoro-5-(2-fluoro-2-(5-(oxazol-2-ylmethoxy)pyrazin-2-yl)vinyl)phenyl)-3,6,6-trimethyl-3,6-dihydro-2H-1,4-thiazine 1,1-dioxide] | 7 nM | 5 nM | 56 nM | 163000 nM
2 | CC#CCOc1cnc(/C(F)=C/c2ccc(F)c([C@@]3(C)N=C(N)N(C)S(=O)(=O)C3(C)C)c2)cn1 [Example 185, (R,Z)-3-amino-5-(5-(2-(5-(but-2-yn-1-yloxy)pyrazin-2-yl)-2-fluorovinyl)-2-fluorophenyl)-2,5,6,6-tetramethyl-5,6-dihydro-2H-1,2,4-thiadiazine 1,1-dioxide] | 2 nM | 5 nM | 159 nM | 259000 nM
3 | C#C[C@H](CC)Oc1cnc(/C(F)=C/c2ccc(F)c([C@]3(C)CS(=O)(=O)C(C)(C)C(N)=N3)c2)cn1 (single isomer, unassigned) [Example 178] | 3 nM | 22 nM | 232 nM | 77600 nM
4 | CN1C(N)=N[C@](C)(c2cc(/C=C(\F)c3ccc(C#N)cn3)ccc2F)C(C)(C)S1(=O)=O [Example 180, (R,Z)-6-(2-(3-(3-amino-2,5,6,6-tetramethyl-1,1-dioxido-5,6-dihydro-2H-1,2,4-thiadiazin-5-yl)-4-fluorophenyl)-1-fluorovinyl)nicotinonitrile] | 7 nM | 26 nM | 75 nM | 93700 nM
5 | COC[C@H](C)Oc1cnc(/C(F)=C/c2ccc(F)c([C@@]3(C)N=C(N)[C@@]4(CF)CC[C@@H]3S4(=O)=O)c2)cn1 [Example 131, (1R,4R,5S)-2-amino-4-(2-fluoro-5-((Z)-2-fluoro-2-(5-(((S)-1-methoxypropan-2-yl)oxy)pyrazin-2-yl)vinyl)phenyl)-1-(fluoromethyl)-4-methyl-8-thia-3-azabicyclo[3.2.1]oct-2-ene 8,8-dioxide] | 13 nM | 97 nM | 104 nM | > 400000 nM
6 | CN1C(N)=N[C@](C)(c2cc(/C=C(\F)c3ccc4c(c3)OCCO4)ccc2F)CS1(=O)=O [Example 196, (R,Z)-3-amino-5-(5-(2-(2,3-dihydrobenzo[b][1,4]dioxin-6-yl)-2-fluorovinyl)-2-fluorophenyl)-2,5-dimethyl-5,6-dihydro-2H-1,2,4-thiadiazine 1,1-dioxide] | 583 nM | 1080 nM | 157 nM | 56100 nM
7 | CN1C(N)=N[C@](C)(c2cc(/C=C(\F)c3ncc(C(F)(F)F)cc3Cl)ccc2F)CS1(=O)=O [Example 242, (5R)-5-(5-((Z)-2-(3-chloro-5-(trifluoromethyl)-2-pyridinyl)-2-fluoroethenyl)-2-fluorophenyl)-2,5-dimethyl-5,6-dihydro-2H-1,2,4-thiadiazin-3-amine 1,1-dioxide] | 5 nM | 26 nM | 10 nM | 99900 nM
8 | CC1(C)C(N)=N[C@](C)(c2cc(/C=C(\F)c3cnc(OCC(F)(F)C(F)F)cn3)ccc2F)CS1(=O)=O [Example 141, (R,Z)-5-amino-3-(2-fluoro-5-(2-fluoro-2-(5-(2,2,3,3-tetrafluoropropoxy)pyrazin-2-yl)vinyl)phenyl)-3,6,6-trimethyl-3,6-dihydro-2H-1,4-thiazine 1,1-dioxide] | 55 nM | 229 nM | 330 nM | 96200 nM
9 | CN1C(N)=N[C@](C)(c2cc(/C=C(\F)c3ccc(Br)cn3)ccc2F)CS1(=O)=O [Example 247, (R,Z)-3-amino-5-(5-(2-(5-bromopyridin-2-yl)-2-fluorovinyl)-2-fluorophenyl)-2,5-dimethyl-5,6-dihydro-2H-1,2,4-thiadiazine 1,1-dioxide] | 6 nM | 28 nM | 7 nM | 11000 nM
10 | COc1cnc(/C(F)=C/c2ccc(F)c([C@]3(C)CS(=O)(=O)C(C)(C)C(N)=N3)c2)cn1 [Example 263, (R,Z)-5-amino-3-(2-fluoro-5-(2-fluoro-2-(5-methoxypyrazin-2-yl)vinyl)phenyl)-3,6,6-trimethyl-3,6-dihydro-2H-1,4-thiazine 1,1-dioxide] | 189 nM | 133 nM | 190 nM | 237000 nM
11 | CN1C(N)=N[C@](C)(c2cc(/C=C(\F)c3cc(F)c(C#N)cn3)ccc2F)CS1(=O)=O [Example 226, 6-((Z)-2-(3-((5R)-3-amino-2,5-dimethyl-1,1-dioxido-5,6-dihydro-2H-1,2,4-thiadiazin-5-yl)-4-fluorophenyl)-1-fluoroethenyl)-4-fluoro-3-pyridinecarbonitrile] | 7 nM | 341 nM | 14 nM | 47000 nM
12 | Cc1nnc(COc2cnc(/C(F)=C/c3ccc(F)c([C@@]4(C)N=C(N)[C@@]5(CF)CC[C@@H]4S5(=O)=O)c3)cn2)o1 [Example 119, (1R,4R,5S)-2-amino-4-(2-fluoro-5-((Z)-2-fluoro-2-(5-((5-methyl-1,3,4-oxadiazol-2-yl)methoxy)pyrazin-2-yl)vinyl)phenyl)-1-(fluoromethyl)-4-methyl-8-thia-3-azabicyclo[3.2.1]oct-2-ene 8,8-dioxide] | 21 nM | 60 nM | 182 nM | > 400000 nM
13 | CN1C(N)=N[C@](C)(c2cc(/C=C(\F)c3cnc(OCC4COC4)cn3)ccc2F)CS1(=O)=O [Example 179, (R,Z)-3-amino-5-(2-fluoro-5-(2-fluoro-2-(5-(oxetan-3-ylmethoxy)pyrazin-2-yl)vinyl)phenyl)-2,5-dimethyl-5,6-dihydro-2H-1,2,4-thiadiazine 1,1-dioxide] | 176 nM | 120 nM | 217 nM | 43000 nM
14 | Cc1nnc(COc2cnc(/C(F)=C/c3ccc(F)c([C@]4(C)CS(=O)(=O)C(C)(C)C(N)=N4)c3)cn2)o1 [Example 176, (R,Z)-5-amino-3-(2-fluoro-5-(2-fluoro-2-(5-((5-methyl-1,3,4-oxadiazol-2-yl)methoxy)pyrazin-2-yl)vinyl)phenyl)-3,6,6-trimethyl-3,6-dihydro-2H-1,4-thiazine 1,1-dioxide] | 111 nM | 56 nM | 409 nM | 148000 nM
15 | CN1C(N)=N[C@](C)(c2cc(/C=C(\F)c3cc4c(cn3)OCCO4)ccc2F)CS1(=O)=O [Example 187, (R,Z)-3-amino-5-(5-(2-(2,3-dihydro-[1,4]dioxino[2,3-c]pyridin-7-yl)-2-fluorovinyl)-2-fluorophenyl)-2,5-dimethyl-5,6-dihydro-2H-1,2,4-thiadiazine 1,1-dioxide] | 172 nM | 108 nM | 78 nM | 165000 nM
16 | C#C[C@@H](CC)Oc1cnc(/C(F)=C/c2ccc(F)c([C@]3(C)CS(=O)(=O)C(C)(C)C(N)=N3)c2)cn1 (single isomer, unassigned) [Example 177] | 208 nM | 600 nM | 101 nM | 61400 nM
17 | COC[C@H](C)Oc1cnc(/C(F)=C/c2ccc(F)c([C@]3(C)CS(=O)(=O)N(C)C(N)=N3)c2)cn1 [Example 164, (R)-3-amino-5-(2-fluoro-5-((Z)-2-fluoro-2-(5-(((S)-1-methoxypropan-2-yl)oxy)pyrazin-2-yl)vinyl)phenyl)-2,5-dimethyl-5,6-dihydro-2H-1,2,4-thiadiazine 1,1-dioxide] | 11 nM | 11 nM | 108 nM | 107000 nM
18 | CC1(C)C(N)=N[C@](C)(c2cc(/C=C/c3ccc(Cl)cc3)ccc2F)CS1(=O)=O [Example 279, (R,E)-5-amino-3-(5-(4-chlorostyryl)-2-fluorophenyl)-3,6,6-trimethyl-3,6-dihydro-2H-1,4-thiazine 1,1-dioxide] | 56 nM | 442 nM | 56 nM | 39300 nM
19 | C#CCOc1cnc(/C(F)=C/c2ccc(F)c([C@@]3(C)N=C(N)N(C)S(=O)(=O)C34CC4)c2)cn1 [Example 138, (8R)-8-(2-fluoro-5-((Z)-2-fluoro-2-(5-(2-propyn-1-yloxy)-2-pyrazinyl)ethenyl)phenyl)-5,8-dimethyl-4-thia-5,7-diazaspiro[2.5]oct-6-en-6-amine 4,4-dioxide] | 16 nM | 78 nM | 622 nM | 125000 nM
20 | CC1(C)C(N)=N[C@](C)(c2cc(/C=C(\F)c3ccc(C#N)cn3)cnc2F)CS1(=O)=O [Example 197, (R,Z)-6-(2-(5-(5-amino-3,6,6-trimethyl-1,1-dioxido-3,6-dihydro-2H-1,4-thiazin-3-yl)-6-fluoropyridin-3-yl)-1-fluorovinyl)nicotinonitrile] | 33 nM | 52 nM | 87 nM | 81300 nM
21 | CC#CCOc1cnc(/C(F)=C/c2ccc(F)c([C@@]3(C)N=C(N)[C@@]4(CF)CC[C@@H]3S4(=O)=O)c2)cn1 [Example 137, (1R,4R,5S)-2-amino-4-(5-((Z)-2-(5-(but-2-yn-1-yloxy)pyrazin-2-yl)-2-fluorovinyl)-2-fluorophenyl)-1-(fluoromethyl)-4-methyl-8-thia-3-azabicyclo[3.2.1]oct-2-ene 8,8-dioxide] | 1 nM | 4 nM | 44 nM | 65300 nM
22 | C#C[C@H](C)Oc1cnc(/C(F)=C/c2ccc(F)c([C@]3(C)CS(=O)(=O)N(C)C(N)=N3)c2)cn1 [Example 171, (R)-3-amino-5-(5-((Z)-2-(5-((S)-but-3-yn-2-yloxy)pyrazin-2-yl)-2-fluorovinyl)-2-fluorophenyl)-2,5-dimethyl-5,6-dihydro-2H-1,2,4-thiadiazine 1,1-dioxide] | 5 nM | 6 nM | 142 nM | 17000 nM
